Results: ChEMBL document CHEMBL6134930, “Discovery of AB801, a Potent and Selective Inhibitor of AXL Receptor Tyrosine Kinase for Use in Cancer Therapy” (J Med Chem, 2025)
The source made the active and inactive calls. No cut-off for these calls is given here.

Legend:
[1] = target: T1, Tyrosine-protein kinase receptor UFO (Homo sapiens, UniProt P30530); experiment: Inhibition of autophosphorylation AXL (unknown origin) expressed in HEK293 cells assessed as NanoLuc activity associated with phosphorylated proteins measured after 1 hr incubation by intracellular pAXL-ELISA; format: cell-based
T1 sequence (P30530 whole entry): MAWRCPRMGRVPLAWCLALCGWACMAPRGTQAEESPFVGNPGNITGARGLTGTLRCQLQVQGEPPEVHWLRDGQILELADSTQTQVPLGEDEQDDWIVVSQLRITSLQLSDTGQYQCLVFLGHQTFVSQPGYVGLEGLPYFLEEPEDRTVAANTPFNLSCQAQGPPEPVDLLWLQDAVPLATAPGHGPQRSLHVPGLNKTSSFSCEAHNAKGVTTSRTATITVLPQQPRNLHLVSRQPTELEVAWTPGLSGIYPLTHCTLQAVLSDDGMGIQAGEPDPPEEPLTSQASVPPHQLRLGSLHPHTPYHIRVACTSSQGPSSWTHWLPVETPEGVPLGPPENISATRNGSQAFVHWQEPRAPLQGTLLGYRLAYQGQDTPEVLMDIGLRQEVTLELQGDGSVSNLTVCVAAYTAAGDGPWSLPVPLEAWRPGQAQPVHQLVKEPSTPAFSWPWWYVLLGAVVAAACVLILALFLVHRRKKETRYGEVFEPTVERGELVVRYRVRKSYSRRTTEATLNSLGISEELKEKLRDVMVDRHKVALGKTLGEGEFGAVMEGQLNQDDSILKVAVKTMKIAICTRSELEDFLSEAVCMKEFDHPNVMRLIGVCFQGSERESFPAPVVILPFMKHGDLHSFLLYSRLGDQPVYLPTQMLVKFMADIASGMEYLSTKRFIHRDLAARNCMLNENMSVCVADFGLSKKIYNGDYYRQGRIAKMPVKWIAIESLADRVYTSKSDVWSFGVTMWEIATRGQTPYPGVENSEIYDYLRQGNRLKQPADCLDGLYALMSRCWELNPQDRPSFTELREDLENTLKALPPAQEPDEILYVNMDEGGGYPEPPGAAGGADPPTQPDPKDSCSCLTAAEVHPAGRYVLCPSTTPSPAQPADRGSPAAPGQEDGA

[2] = target: hERG (KCNH2) (Homo sapiens, UniProt Q12809); experiment: Inhibition of hERG at 10 uM by high throughput cell based patch clamp assay; format: toxicity
[3] = target: Cytochrome P450 3A4 (Homo sapiens, UniProt P08684); experiment: Inhibition of CYP3A4 (unknown origin) using midazolam as substrate measured after 30 mins; format: ADME
[4] = Selectivity ratio, ratio of Ki for HPK1 (unknown origin) to Ki for AXL (unknown origin)
[5] = test system: 786-0; experiment: Anti-tumor activity against human 786-0 cells xenografted in mouse model assessed as reduction in tumor volume in presence of sunitinib at 30 mg/kg, po once daily for 15 days; format: functional, organism-based; details: time 15.0 day
[6] = Toxicity in mouse xenografted with human 786-0 cells assessed as body weight at 30 mg/kg, po once daily for 15 days; format: organism-based; details: in vivo, 360 h, time 15 day
[7] = Half life in human (healthy individuals) at 90 mg, single oral dose; format: ADME; details: in vivo
[8] = Cmax in human (healthy individuals) at 10 mg, single oral dose measured uo to 120 hrs; format: ADME; details: in vivo
[9] = Cmax in human (healthy individuals) at 30 mg, single oral dose measured uo to 120 hrs; format: ADME; details: in vivo
[10] = AUC (0 to 24 hrs) in human (healthy individuals) at 90 mg, single oral dose; format: ADME; details: in vivo

hERG (KCNH2), sequence (Q12809 whole entry): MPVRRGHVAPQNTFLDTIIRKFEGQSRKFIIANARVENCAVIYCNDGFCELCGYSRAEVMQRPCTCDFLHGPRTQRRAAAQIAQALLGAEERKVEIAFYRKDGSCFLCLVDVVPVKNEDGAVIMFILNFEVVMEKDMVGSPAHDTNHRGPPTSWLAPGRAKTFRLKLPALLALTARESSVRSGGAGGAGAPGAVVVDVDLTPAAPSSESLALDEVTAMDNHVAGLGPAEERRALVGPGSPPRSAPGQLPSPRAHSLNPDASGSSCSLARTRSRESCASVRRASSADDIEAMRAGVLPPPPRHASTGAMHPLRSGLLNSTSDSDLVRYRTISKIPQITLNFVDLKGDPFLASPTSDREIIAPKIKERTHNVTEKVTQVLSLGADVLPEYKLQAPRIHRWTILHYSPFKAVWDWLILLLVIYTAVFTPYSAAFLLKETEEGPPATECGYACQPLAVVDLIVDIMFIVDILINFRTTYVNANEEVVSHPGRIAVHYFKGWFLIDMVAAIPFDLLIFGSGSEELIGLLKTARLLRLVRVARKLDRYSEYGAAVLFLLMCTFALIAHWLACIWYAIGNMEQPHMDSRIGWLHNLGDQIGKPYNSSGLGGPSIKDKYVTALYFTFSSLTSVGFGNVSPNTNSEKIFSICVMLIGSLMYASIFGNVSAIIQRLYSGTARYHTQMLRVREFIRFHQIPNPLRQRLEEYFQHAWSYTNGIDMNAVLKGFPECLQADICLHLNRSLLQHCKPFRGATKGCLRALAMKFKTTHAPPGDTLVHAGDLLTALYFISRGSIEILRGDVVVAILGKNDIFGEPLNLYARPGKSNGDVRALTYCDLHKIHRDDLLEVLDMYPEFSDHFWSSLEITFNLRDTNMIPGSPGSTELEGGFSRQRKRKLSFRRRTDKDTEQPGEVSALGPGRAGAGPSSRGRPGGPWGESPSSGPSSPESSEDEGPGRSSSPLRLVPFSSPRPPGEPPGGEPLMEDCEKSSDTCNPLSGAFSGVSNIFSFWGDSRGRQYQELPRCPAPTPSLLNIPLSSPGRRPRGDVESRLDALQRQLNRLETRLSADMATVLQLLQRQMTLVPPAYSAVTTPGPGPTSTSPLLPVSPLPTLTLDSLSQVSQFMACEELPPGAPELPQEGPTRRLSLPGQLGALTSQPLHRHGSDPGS
Cytochrome P450 3A4, sequence (P08684 whole entry): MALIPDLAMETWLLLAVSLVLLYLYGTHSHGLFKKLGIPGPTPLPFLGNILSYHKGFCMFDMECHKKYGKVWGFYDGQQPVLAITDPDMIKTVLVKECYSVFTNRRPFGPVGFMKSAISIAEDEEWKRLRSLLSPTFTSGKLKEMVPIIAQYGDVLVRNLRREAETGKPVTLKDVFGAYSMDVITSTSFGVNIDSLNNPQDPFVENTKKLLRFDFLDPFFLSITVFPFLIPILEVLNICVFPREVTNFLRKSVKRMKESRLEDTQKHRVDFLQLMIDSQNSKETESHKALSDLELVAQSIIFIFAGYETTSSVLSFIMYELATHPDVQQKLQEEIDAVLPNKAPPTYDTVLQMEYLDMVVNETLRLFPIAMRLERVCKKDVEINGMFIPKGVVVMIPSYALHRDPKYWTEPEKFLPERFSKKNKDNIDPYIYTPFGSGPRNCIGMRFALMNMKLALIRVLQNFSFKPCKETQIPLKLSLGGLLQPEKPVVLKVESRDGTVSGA

SMILES: Cc1cccnc1-c1ccc(-c2n[nH]c3ncc(-c4ccc5c(c4)CC[C@@H](N4C6COCC4C6)CC5)cc23)nc1
- IC50 [1]: 0.069 µM
- inhibition at 10 µM [2]: 56%
- IC50 [3]: 17 µM
- Ratio Ki [4]: 280
- Activity [5]: Active
- Activity [6]: Non-toxic
- half-life [7]: 54 h
- Cmax [8]: 3 ng/mL
- Cmax [9]: 12 ng/mL
- AUC(0-t) [10]: 707 ng·h/mL
